Reference: US9340600B2 (Indiana University Research and Technology Corporation, priority 2012, dated 2016)
*1 amine or outer side, *2 acyl side, *3 side chain or, on linkers, in order; H or OH if unused. Where a SMILES comes first, the peptide text is derived from it. Side-chain parts run from the residue outwards. [ ]: non-standard residue; d: D form. The star is where a group is joined. γGlu = O=C(O)[C@H](CCC(=O)[*:2])N[*:1]; Palmitoyl = CCCCCCCCCCCCCCCC(=O)*; Nva = CCC[C@H](N)C(=O)O; Aib = CC(C)(N)C(=O)O

Columns and labels:
Type in all cases: cell-based
glucagon receptor = target: T1, glucagon receptor (Homo sapiens, UniProt P47871); assay: cAMP induction, firefly luciferase-based reporter assay in HEK293 cells co-transfected with glucagon receptor; conditions: EC50 at Glucagon Receptor
T1 construct: expressed in transfected cells; host or cells: HEK293
Source text: (§1) This example describes an exemplary method of testing the biological activity of the peptides of the present disclosures, which method involves assaying cAMP synthesis.

GLP-1 receptor = target: T2, GLP-1 receptor (Homo sapiens, UniProt P43220); assay: cAMP induction, firefly luciferase-based reporter assay in HEK293 cells co-transfected with GLP-1 receptor; conditions: EC50 at GLP-1 Receptor
T2 construct: expressed in transfected cells; host or cells: HEK293
Source text: as §1

GIP receptor = target: T3, GIP receptor (Homo sapiens, UniProt P48546); assay: cAMP induction, firefly luciferase-based reporter assay in HEK293 cells co-transfected with GIP receptor; conditions: EC50 at GIP Receptor
T3 construct: expressed in transfected cells; host or cells: HEK293
T3 sequence (P48546 22-466): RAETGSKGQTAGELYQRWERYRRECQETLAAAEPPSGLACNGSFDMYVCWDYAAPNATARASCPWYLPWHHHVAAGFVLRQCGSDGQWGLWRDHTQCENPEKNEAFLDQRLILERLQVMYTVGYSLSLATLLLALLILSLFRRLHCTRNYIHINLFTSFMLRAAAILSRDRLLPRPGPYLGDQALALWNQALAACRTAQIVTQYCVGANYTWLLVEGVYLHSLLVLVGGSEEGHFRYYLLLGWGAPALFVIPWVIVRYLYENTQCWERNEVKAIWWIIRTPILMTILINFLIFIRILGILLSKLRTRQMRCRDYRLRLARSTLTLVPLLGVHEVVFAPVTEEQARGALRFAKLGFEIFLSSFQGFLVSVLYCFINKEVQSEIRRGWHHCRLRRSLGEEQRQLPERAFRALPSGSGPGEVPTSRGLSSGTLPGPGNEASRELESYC
Source text: as §1

[1] = Table 4, analogs of SEQ ID NO: 43 varying at position 3
[2] = Table 5, analogs of SEQ ID NO: 10
[3] = Table 2, analogs of SEQ ID NO: 18 varying at positions 16-21
[4] = Table 3, analogs of SEQ ID NO: 18 varying at position 3

T2 sequence (P43220 24-463): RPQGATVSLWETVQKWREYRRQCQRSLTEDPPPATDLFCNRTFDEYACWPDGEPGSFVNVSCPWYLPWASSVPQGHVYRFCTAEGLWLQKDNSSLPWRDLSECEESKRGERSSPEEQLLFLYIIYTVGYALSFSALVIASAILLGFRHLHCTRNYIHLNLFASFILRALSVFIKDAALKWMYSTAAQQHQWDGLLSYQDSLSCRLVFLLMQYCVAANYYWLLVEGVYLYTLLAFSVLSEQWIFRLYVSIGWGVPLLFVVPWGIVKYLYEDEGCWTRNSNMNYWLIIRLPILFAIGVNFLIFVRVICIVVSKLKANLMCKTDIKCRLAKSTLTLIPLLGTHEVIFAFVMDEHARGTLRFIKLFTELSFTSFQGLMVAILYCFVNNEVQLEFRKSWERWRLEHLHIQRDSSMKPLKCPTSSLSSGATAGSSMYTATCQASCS
T1 sequence (P47871 26-477): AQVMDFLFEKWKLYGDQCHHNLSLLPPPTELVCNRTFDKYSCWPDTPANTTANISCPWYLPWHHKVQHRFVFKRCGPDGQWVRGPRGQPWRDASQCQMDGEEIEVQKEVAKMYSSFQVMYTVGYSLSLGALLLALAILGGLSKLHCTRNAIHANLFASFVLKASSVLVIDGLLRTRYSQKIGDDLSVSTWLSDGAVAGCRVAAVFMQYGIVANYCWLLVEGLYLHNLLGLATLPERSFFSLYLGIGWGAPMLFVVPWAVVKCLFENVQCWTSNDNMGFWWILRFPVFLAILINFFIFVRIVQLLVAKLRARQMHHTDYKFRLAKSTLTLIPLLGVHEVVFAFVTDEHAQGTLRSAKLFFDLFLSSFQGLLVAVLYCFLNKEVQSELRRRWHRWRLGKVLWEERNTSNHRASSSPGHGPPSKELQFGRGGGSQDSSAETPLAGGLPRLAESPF

Compound `CCCCCCCCCCCCCCCC(=O)N[C@@H](CCC(=O)NCCCC[C@H](NC(=O)[C@H](CC(=O)O)NC(=O)[C@H](CO)NC(=O)[C@@H](NC(=O)[C@H](Cc1ccccc1)NC(=O)[C@@H](NC(=O)CNC(=O)[C@H](CCC)NC(=O)C(C)(C)NC(=O)[C@@H](N)Cc1c[nH]cn1)[C@@H](C)O)[C@@H](C)O)C(=O)N[C@@H](CO)C(=O)N[C@@H](CCCCN)C(=O)N[C@@H](Cc1ccc(O)cc1)C(=O)N[C@@H](CC(C)C)C(=O)N[C@@H](CC(=O)O)C(=O)N[C@@H](CCC(=O)O)C(=O)N[C@@H](CCCNC(=N)N)C(=O)N[C@@H](C)C(=O)N[C@@H](C)C(=O)N[C@@H](CCC(N)=O)C(=O)N[C@@H](CC(=O)O)C(=O)N[C@@H](Cc1ccccc1)C(=O)N[C@H](C(=O)N[C@@H](CCC(N)=O)C(=O)N[C@@H](Cc1c[nH]c2ccccc12)C(=O)N[C@@H](CC(C)C)C(=O)N[C@@H](CC(C)C)C(=O)N[C@@H](CCC(=O)O)C(=O)NCC(=O)NCC(=O)N1CCC[C@H]1C(=O)N[C@@H](CO)C(=O)N[C@@H](CO)C(=O)NCC(=O)N[C@@H](C)C(=O)N1CCC[C@H]1C(=O)N1CCC[C@H]1C(=O)N1CCC[C@H]1C(=O)N[C@@H](CO)C(N)=O)C(C)C)C(=O)O` [compound 47] (H-H[Aib][Nva]GTFTSDK([γGlu-Palmitoyl])SKYLDERAAQDFVQWLLEGGPSSGAPPPS-NH2) has an EC50 (glucagon receptor; [1]) of 25 pM, an EC50 (GLP-1 receptor; [1]) of 3 pM and an EC50 (GIP receptor; [1]) of 2 pM.
Work on `CCCCCCCCCCCCCCCC(=O)N[C@@H](CCC(=O)NCCCC[C@H](NC(=O)[C@H](CC(=O)O)NC(=O)[C@H](CO)NC(=O)[C@@H](NC(=O)[C@H](Cc1ccccc1)NC(=O)[C@@H](NC(=O)CNC(=O)[C@H](CCC(N)=O)NC(=O)C(C)(C)NC(=O)[C@@H](N)Cc1c[nH]cn1)[C@@H](C)O)[C@@H](C)O)C(=O)N[C@@H](CO)C(=O)N[C@@H](CCCCN)C(=O)N[C@@H](Cc1ccc(O)cc1)C(=O)N[C@@H](CC(C)C)C(=O)N[C@@H](CC(=O)O)C(=O)N[C@@H](CCC(=O)O)C(=O)N[C@@H](CCCNC(=N)N)C(=O)N[C@@H](C)C(=O)N[C@@H](C)C(=O)N[C@@H](CCC(N)=O)C(=O)N[C@@H](CC(=O)O)C(=O)N[C@@H](Cc1ccccc1)C(=O)N[C@H](C(=O)N[C@@H](CCC(N)=O)C(=O)N[C@@H](Cc1c[nH]c2ccccc12)C(=O)N[C@@H](CC(C)C)C(=O)N[C@@H](CC(C)C)C(=O)N[C@@H](CC(=O)O)C(=O)NC(C)(C)C(=O)NCC(=O)N1CCC[C@H]1C(=O)N[C@@H](CO)C(=O)N[C@@H](CO)C(=O)NCC(=O)N[C@@H](C)C(=O)N1CCC[C@H]1C(=O)N1CCC[C@H]1C(=O)N1CCC[C@H]1C(=O)N[C@@H](CO)C(N)=O)C(C)C)C(=O)O` [compound 65] (H-H[Aib]QGTFTSDK([γGlu-Palmitoyl])SKYLDERAAQDFVQWLLD[Aib]GPSSGAPPPS-NH2; N-terminus assumed) yielded an EC50 (glucagon receptor; [2]) of 2 pM, an EC50 (GLP-1 receptor; [2]) of 3 pM and an EC50 (GIP receptor; [2]) of 5 pM.
In the case of `CCCCCCCCCCCCCCCC(=O)N[C@@H](CCC(=O)NCCCC[C@H](NC(=O)[C@H](CC(=O)O)NC(=O)[C@H](CO)NC(=O)[C@@H](NC(=O)[C@H](Cc1ccccc1)NC(=O)[C@@H](NC(=O)CNC(=O)[C@H](CCC(N)=O)NC(=O)C(C)(C)NC(=O)[C@@H](N)Cc1c[nH]cn1)[C@@H](C)O)[C@@H](C)O)C(=O)N[C@@H](CO)C(=O)N[C@@H](CCCCN)C(=O)N[C@@H](Cc1ccc(O)cc1)C(=O)N[C@@H](CC(C)C)C(=O)N[C@@H](CC(=O)O)C(=O)NC(C)(C)C(=O)N[C@@H](CCCNC(=N)N)C(=O)N[C@@H](C)C(=O)N[C@@H](C)C(=O)NC(C)(C)C(=O)N[C@@H](CCC(=O)O)C(=O)N[C@@H](Cc1ccccc1)C(=O)N[C@H](C(=O)N[C@@H](CCC(N)=O)C(=O)N[C@@H](Cc1c[nH]c2ccccc12)C(=O)N[C@@H](CC(C)C)C(=O)N[C@@H](CC(C)C)C(=O)N[C@@H](CC(=O)O)C(=O)NCC(=O)NCC(=O)N1CCC[C@H]1C(=O)N[C@@H](CO)C(=O)N[C@@H](CO)C(=O)NCC(=O)N[C@@H](C)C(=O)N1CCC[C@H]1C(=O)N1CCC[C@H]1C(=O)N1CCC[C@H]1C(=O)N[C@@H](CO)C(N)=O)C(C)C)C(=O)O` [compound 24] (H-H[Aib]QGTFTSDK([γGlu-Palmitoyl])SKYLD[Aib]RAA[Aib]EFVQWLLDGGPSSGAPPPS-NH2), the EC50 (glucagon receptor; [3]) is reported as 2 pM, the EC50 (GLP-1 receptor; [3]) is reported as 10 pM and the EC50 (GIP receptor; [3]) is reported as 5 pM.
Compound `CCCCCCCCCCCCCCCC(=O)N[C@@H](CCC(=O)NCCCC[C@H](NC(=O)[C@H](CC(=O)O)NC(=O)[C@H](CO)NC(=O)[C@@H](NC(=O)[C@H](Cc1ccccc1)NC(=O)[C@@H](NC(=O)CNC(=O)[C@H](CCC(N)=O)NC(=O)C(C)(C)NC(=O)[C@@H](N)Cc1c[nH]cn1)[C@@H](C)O)[C@@H](C)O)C(=O)N[C@@H](CO)C(=O)N[C@@H](CCCCN)C(=O)N[C@@H](Cc1ccc(O)cc1)C(=O)N[C@@H](CC(C)C)C(=O)N[C@@H](CC(=O)O)C(=O)N[C@@H](C)C(=O)N[C@@H](CCCNC(=N)N)C(=O)N[C@@H](C)C(=O)N[C@@H](C)C(=O)NC(C)(C)C(=O)N[C@@H](CCC(=O)O)C(=O)N[C@@H](Cc1ccccc1)C(=O)N[C@H](C(=O)N[C@@H](CCC(N)=O)C(=O)N[C@@H](Cc1c[nH]c2ccccc12)C(=O)N[C@@H](CC(C)C)C(=O)N[C@@H](CC(C)C)C(=O)N[C@@H](CC(=O)O)C(=O)NCC(=O)NCC(=O)N1CCC[C@H]1C(=O)N[C@@H](CO)C(=O)N[C@@H](CO)C(=O)NCC(=O)N[C@@H](C)C(=O)N1CCC[C@H]1C(=O)N1CCC[C@H]1C(=O)N1CCC[C@H]1C(=O)N[C@@H](CO)C(N)=O)C(C)C)C(=O)O` [compound 22] (H-H[Aib]QGTFTSDK([γGlu-Palmitoyl])SKYLDARAA[Aib]EFVQWLLDGGPSSGAPPPS-NH2) has an EC50 (glucagon receptor; [3]) of 5 pM, an EC50 (GLP-1 receptor; [3]) of 11 pM and an EC50 (GIP receptor; [3]) of 4 pM.
Work on `CCCCCCCCCCCCCCCC(=O)N[C@@H](CCC(=O)NCCCC[C@H](NC(=O)[C@H](CC(=O)O)NC(=O)[C@H](CO)NC(=O)[C@@H](NC(=O)[C@H](Cc1ccccc1)NC(=O)[C@@H](NC(=O)CNC(=O)[C@H](CCC(N)=O)NC(=O)C(C)(C)NC(=O)[C@@H](N)Cc1c[nH]cn1)[C@@H](C)O)[C@@H](C)O)C(=O)N[C@@H](CO)C(=O)N[C@@H](CCCCN)C(=O)N[C@@H](Cc1ccc(O)cc1)C(=O)N[C@@H](CC(C)C)C(=O)N[C@@H](CCC(=O)O)C(=O)N[C@@H](CCC(=O)O)C(=O)N[C@@H](CCCNC(=N)N)C(=O)N[C@@H](C)C(=O)N[C@@H](C)C(=O)N[C@@H](CCC(N)=O)C(=O)N[C@@H](CCC(=O)O)C(=O)N[C@@H](Cc1ccccc1)C(=O)N[C@H](C(=O)N[C@@H](CCC(N)=O)C(=O)N[C@@H](Cc1c[nH]c2ccccc12)C(=O)N[C@@H](CC(C)C)C(=O)N[C@@H](CC(C)C)C(=O)N[C@@H](CCC(=O)O)C(=O)NCC(=O)NCC(=O)N1CCC[C@H]1C(=O)N[C@@H](CO)C(=O)N[C@@H](CO)C(=O)NCC(=O)N[C@@H](C)C(=O)N1CCC[C@H]1C(=O)N1CCC[C@H]1C(=O)N1CCC[C@H]1C(=O)N[C@@H](CO)C(N)=O)C(C)C)C(=O)O` [compound 18] (H-H[Aib]QGTFTSDK([γGlu-Palmitoyl])SKYLEERAAQEFVQWLLEGGPSSGAPPPS-NH2) yielded an EC50 (glucagon receptor; [3]) of 5 pM, an EC50 (glucagon receptor; [4]) of 5 pM and an EC50 (GLP-1 receptor; Table 1) of 8 pM. It also gave an EC50 (GLP-1 receptor; [3]) of 10 pM, an EC50 (GIP receptor; [3]) of 4 pM and an EC50 (GIP receptor; [4]) of 4 pM.
